Data reported in patent US20250288572A1, “COMPOSITIONS AND METHODS FOR TREATING PULMONARY VASCULAR DISEASE” (UNIVERSITY OF PITTSBURGH-OF THE COMMONWEALTH SYSTEM OF …, priority 2022, published 2025).
“Also recorded” adds a separate entry of the source.

Assays:
[1] = tested on: SU5416-hypoxic pulmonary arterial hypertension rats; assay: SU5416-hypoxia pulmonary arterial hypertension rat model, disease-reversal dosing; format: in vivo, Sprague-Dawley rats
Experimental: Briefly, 10 week old male Sprague-Dawley rats were injected i.p. with 20 mg/kg of SU5416 (Sigma), placed in normobaric hypoxia (10% 02) for 3 weeks and then transferred to normoxia for 2 weeks. During hypoxic exposure, chambers were opened twice a week for cleaning and replenishment of food and water. […] For BRD2889 vs. vehicle control dosing, i.p. injections every 5 days (5 mg/kg) were administered during the final two weeks of normoxia. Oxygen concentrations were continuously monitored with blood gas analyzers.
Measurement of GST activity: The GST activity from lung tissue and PAECs was assayed using GST assay kit (Cayman, MI, USA) per the manufacturer's instructions.
(§1) Rodent echocardiography: Echocardiography was performed using a 15-45M Hz transthoracic transducer and a Visual Sonics Vevo 3100 system (Fujifilm). Inhaled isoflurane anesthesia was used at 2% in 100% 02 during positioning and hair removal and then decreased to isoflurane 0.8% during imaging.

[2] = tested on: glutathione S-transferase (GST); assay: Measurement of GST activity in PAECs; format: cell-based, human
Experimental: (§2) BRD2889 (1 uM) vs. vehicle control were added, as indicated, and placed into a hypoxia chamber for 24 h. The hypoxia chamber (modular incubator chamber) was obtained from Billups-Rothenberg Inc. (Del Mar, Cali) and placed in regulated CO2 incubator at 37° C.

hypoxic IL-6 Tg mice = assay: Chronically hypoxic IL-6 transgenic PAH mouse model; format: in vivo, IL-6 transgenic mice (C57B/6 background)
Experimental: Pulmonary-specific IL-6 transgenic mice (C57B/6 background) were described previously (Steiner M K et al. Circ Res. 2009, 104, 236-244, 228p following 244). These mice were bred in house, and 12 week old male transgenic mice vs. control littermates were compared. Mice were injected i.p. every 3 days with vehicle control (2.5% DMSO) vs. BRD2889 (5 mg/kg vs. […] Circ Res. 2009, 104, 236-244, 228p following 244).
as §1

mitochondrial Complex 1 = assay: Mitochondrial Complex 1 activity in PASMCs; format: cell-based, human; settings: IL-6/sIL-6R + hypoxia
Experimental: as §2
Measurement of mitochondrial complex activities: Complex 1 activity of isolated mitochondria were measured using Complex 1 Enzyme Activity Microplate assay kit (Abcam, ab109721) according to the manufacturer's protocol. These enzymes were captured within the wells of the microplate coated by the corresponding complex enzyme antibody, and activities were detected colorimetrically.

[3] = SU5416-hypoxia rats, vs vehicle control
[4] = SU5416-hypoxia rats, I-BET762 30 mg/kg daily i.p. or BRD2889 5 mg/kg i.p. every 5 days, final 2 weeks
[5] = BRD2889 10 mg/kg vs vehicle, 10 days, 10 mg/kg
[6] = BRD2889 5 and 10 mg/kg i.p. every three days

COc1ccc(C#CC2CCCN(C(=O)/C=C/c3cc(OC)c(OC)c(OC)c3)C2=O)cc1 (stereo not shown) [BRD2889, (E)-3-((4-methoxyphenyl)ethynyl)-1-(3-(3,4,5-trimethoxyphenyl)acryloyl)piperidin-2-one]
aortic blood pressure (mean arterial pressure, MAP) [1, 3]: without significant alterations | heart rate [1, 3]: without significant alterations | left ventricular function (LVPW thickness, LVEF, LVFS; echocardiography) [1, 3]: no alteration of left ventricular function; also recorded: did not exhibit altered left ventricular function | endothelial ISCU (immunofluorescence) ([1]; SU5416-hypoxia rats, BRD2889 5 mg/kg i.p. every 5 days): increased | lung GST activity ([1]; SU5416-hypoxia rats, BRD2889 5 mg/kg i.p. every 5 days, 5 mg/kg): reduced; also recorded: decreased | transcript levels of injury markers of liver (Got, Gpt1) and kidney (Cst3, Lcn2), tissue toxicity ([1]; SU5416-hypoxia rats, BRD2889 vs VC, RT-qPCR): no indication of overt tissue toxicities | Fulton index (RV/LV+S) [1, 4]: reducing; also recorded: reduced | arteriolar muscularization (α-SMA) [1, 4]: reducing; also recorded: reduced | cleaved caspase-3 (CC-3), endothelial apoptosis [1, 4]: reducing; also recorded: decreased | right ventricular systolic pressure (RVSP) [1, 4]: reducing; also recorded: reduced | ascites ([1]; three SU5416-hypoxic rats treated with drug): accumulation of mild ascites | GST activity ([2]; PAECs, IL-6/sIL-6R + hypoxia, BRD2889 1 uM): reversed the increase in GSTP1 activity; also recorded: reversed the IL-6/R+ hypoxia-mediated increase | GST enzyme activity ([2]; hypoxic PAECs): reduced the hypoxic increase in GST enzyme activity; also recorded: reversed hypoxic alterations | heart rate (hypoxic IL-6 Tg mice; [5]): No significant differences | left ventricular function (fractional shortening, ejection fraction, posterior wall thickness) (hypoxic IL-6 Tg mice; [5]): No significant differences | Fulton index (RV/LV+S) (hypoxic IL-6 Tg mice; [6]): dose-dependent reduction; also recorded: reduced | ISCU in arterioles / CD31+ endothelium (hypoxic IL-6 Tg mice; [6]): rescued ISCU; also recorded: increased | RVSP (hypoxic IL-6 Tg mice; [6]): dose-dependent reduction; also recorded: reduced | arteriolar muscularization / pulmonary arteriolar remodeling (hypoxic IL-6 Tg mice; [6]): reduction; also recorded: reduced | cleaved caspase-3 (CC-3), endothelial apoptosis (hypoxic IL-6 Tg mice; [6]): reduction; also recorded: decreased | lung total GST enzyme activity (hypoxic IL-6 Tg mice; [6]): dose-dependent reduction; also recorded: decreased lung GST activity in a dose-dependent manner | mitochondrial Complex 1 activity (mitochondrial Complex 1): did not affect
